Read-outs that look alike come from different tables or passages of the source.
Assays:
A431 cells = experiment: Cell proliferation (Alamar Blue) assay, A431 cells; assay type: cell-based; conditions: Homo sapiens, A-431, A431 cells, Alamar Blue
Description: (§1) Cell viability assay was performed to assess the potency of the compounds in human cancer cell lines 786-0 (renal cell carcinoma) and SJSA-1 (osteosarcoma). Additional cell lines, such as pancreatic cancer cell lines (Panc 02.13, BxPC-3, Panc 12, Panc 02.03, Panc 6.03, PSN-1, HPAC, and Capan-1), prostate cancer cell lines (PC-3, DU145, […], NCI-H660, 1PH1 LNCaP, BM-1604, and MDA PCa 2b), etc., can be tested in a similar method.
(§2) Cells (SJSA-1, 786-0 and A431) were seeded (5000 cells/100 μL/well) in 96-well tissue culture plate and incubated at 37° C./500 CO2 for 16-24 hours. The cells were then treated with compounds (25 μL of 5×). The compound concentrations were 10-0.0005 μM prepared in 3-fold serial dilutions with final DMSO concentration of 1%. The plates were then incubated for 24 h at 37° C./[…] in a moist environment. Then Alamar Blue™ reagent (final concentration 1×-12.5 μL) was added to each well and incubated for 1.5 hours at 37° C./500 CO2. The plates were read on fluorescence reader at 540 nm excitation and 590 nm emission wavelengths. The IC50 values were subsequently determined using a sigmoidal dose-response curve (variable slope) in GraphPad Prism® 5 software. Tables A-3 and B-11 show cell proliferation data for exemplary compounds as described herein.

[1] = system: 786-O cells + Ferrastatin-1; experiment: GPX4 inhibition assay: cell proliferation (Alamar Blue) in 786-O cells with ferrostatin rescue; assay type: cell-based, human
Description: as §2
Studies have shown that lipophilic antioxidants, such as ferrostatin, can rescue cells from GPX4 inhibition-induced ferroptosis. For instance, mesenchymal state GPX4-knockout cells can survive in the presence of ferrostatin, however, when the supply of ferrostatin is terminated, these cells undergo ferroptosis (see, e.g., Viswanathan et al., Nature 547:453-7, 2017). […] Accordingly, the ability of a molecule to induce ferroptotic cancer cell death, and that such ability is admonished by the addition of ferrostatin, is clear indication that the molecule is an GPX4 inhibitor. Cell proliferation data for exemplary compounds with and without ferrostatin can be seen in Table A-3.

[2] = system: 786-O (renal cell carcinoma) cells; experiment: Cell proliferation (Alamar Blue) assay, 786-O cells; assay type: cell-based; conditions: Homo sapiens, 786-0, 786-O cells, Alamar Blue
Description: as §1, §2

[3] = 24 h compound treatment, read-out: IC50 (μM) A431
[4] = 786-O cells in presence of Ferrastatin-1 (rescue), read-out: IC50 (μM) 786-O + Ferrastatin-1
[5] = 24 h compound treatment, read-out: IC50 (μM) 786-O
[6] = 24 h compound incubation, read-out: Cell proliferation IC50 (μM) A431
[7] = 786-O cells with Ferrastatin-1 (rescue), read-out: Cell proliferation IC50 (μM) 786-O + Ferrastatin-1
[8] = 24 h compound incubation, read-out: Cell proliferation IC50 (μM) 786-O

Compound	IC50 (A431 cells; [3])	IC50 [1, 4]	IC50 [2, 5]	IC50 (A431 cells; [6])	IC50 [1, 7]	IC50 [2, 8]
C#CC(=O)N1[C@@H](CCCC)Cc2cc(CCCO)ccc2[C@@H]1c1ccc(NC23CC4CC(CC(C4)C2)C3)cc1 [Compound B-56]	0.117 µM	1.27 µM	0.012 µM			
C#CC(=O)N1[C@@H](CCCC)Cc2cc(C(N)=O)ccc2[C@@H]1c1ccc(NC23CC4CC(CC(C4)C2)C3)cc1 [Compound B-61]	3.54 µM	1.28 µM	0.012 µM			
CCCC[C@H]1Cc2cc(OC)ccc2[C@H](c2ccc(NC34CC5CC(C3)CC(OC(=O)[C@@H](N)C(C)C)(C5)C4)cc2)N1C(=O)C#C[Si](C)(C)C [Compound A-45]				1.7 µM	2.04 µM	0.0177 µM
C#CC(=O)N1[C@@H](CCCC)Cc2cc(OCCOC)ccc2[C@@H]1c1ccc(NC23CC4CC(CC(C4)C2)C3)cc1 [Compound B-70]	2.08 µM	1.59 µM	0.012 µM			
CCCC[C@H]1Cc2cc(OC(F)(F)F)ccc2[C@H](c2ccc(NC34CC5CC(CC(C5)C3)C4)cc2)N1C(=O)C#C[Si](C)(C)C [Compound A-26, 1-((1S,3S)-1-(4-(((3R,5R,7R)-adamantan-1-yl)amino)phenyl)-3-butyl-6-(trifluoromethoxy)-3,4-dihydroisoquinolin-2(1H)-yl)-3-(trimethylsilyl)prop-2-yn-1-one]				3.05 µM	4.19 µM	0.043 µM
C#CC(=O)N1[C@@H](CCCC)Cc2c(OC)cccc2[C@@H]1c1ccc(NC23CC4CC(CC(C4)C2)C3)cc1 [Compound B-69]	1.79 µM	2.47 µM	0.015 µM			
C#CC(=O)N1[C@@H](CCC)Cc2cc(OC)ccc2[C@H]1c1ccc(NC23CC4CC(CC(C4)C2)C3)cc1 [Compound B-44]	> 1 µM		0.054 µM			
CCCC[C@H]1Cc2cc(OC)ccc2[C@H](c2ccc(NC34CC5CC(CC(C5)C3)C4)c(C#N)c2)N1C(=O)C#C[Si](C)(C)C [Compound A-15, 2-(((3R,5R,7R)-adamantan-1-yl)amino)-5-((1S,3S)-3-butyl-6-methoxy-2-(3-(trimethylsilyl)propioloyl)-1,2,3,4-tetrahydroisoquinolin-1-yl)benzonitrile]					> 1 µM	0.021 µM
C#CC(=O)N1[C@@H](CCCC)Cc2cc(OC)ccc2[C@@H]1c1ccc(NC23CC4CC(CC(C4)C2)C3)c(C#N)c1 [Compound B-8]			0.021 µM			
CCCC[C@H]1Cc2cc(OC)ccc2[C@H](c2ccc(NC34CC5CC(CC(O)(C5)C3)C4)cc2)N1C(=O)C#C[Si](C)(C)C [Compound A-47]				1.63 µM	2.33 µM	0.049 µM
C#CC(=O)N1[C@@H](CCCC)Cc2cc(OC)ccc2[C@@H]1c1ccc(NC23CC4CC(CC(C4)C2)C3)cc1F [Compound B-83]	7.87 µM	6.59 µM	2.79 µM			
C#CC(=O)N1[C@@H](CCCC)Cc2cc(CCC(=O)O)ccc2[C@@H]1c1ccc(NC23CC4CC(CC(C4)C2)C3)cc1 [Compound B-55]	≥ 10 µM	≥ 10 µM	0.046 µM			
C#CC(=O)N1[C@@H](CCCC)Cc2cc(OC)ccc2[C@@H]1c1ccc(C#N)cc1 [Compound B-31]	3.67 µM		0.016 µM			
C#CC(=O)N1[C@@H](c2ccc(NC34CC5CC(CC(C5)C3)C4)cc2)c2ccc(OC)cc2C[C@@H]1C1CCC1 [Compound B-4]			0.016 µM			
C#CC(=O)N1[C@@H](COC)Cc2cc(OC)ccc2[C@@H]1c1ccc(NC23CC4CC(CC(C4)C2)C3)cc1 [Compound B-41]	3.88 µM		0.0035 µM			
C#CC(=O)N1[C@@H](CC2CC2)Cc2cc(OC)ccc2[C@@H]1c1ccc(NC23CC4CC(CC(C4)C2)C3)cc1 [Compound B-50]			0.01 µM			
COc1ccc2c(c1)C[C@H](C1CCC1)N(C(=O)C#C[Si](C)(C)C)[C@H]2c1ccc(NC23CC4CC(CC(C4)C2)C3)cc1 [Compound A-7, 1-((1S,3R)-1-(4-(((3R,5R,7R)-adamantan-1-yl)amino)phenyl)-3-cyclobutyl-6-methoxy-3,4-dihydroisoquinolin-2(1H)-yl)-3-(trimethylsilyl)prop-2-yn-1-one]					> 1 µM	0.021 µM
C#CC(=O)N1[C@@H](CC2CC2)Cc2cc(OC)ccc2[C@@H]1c1ccc(C#N)cc1 [Compound B-37]	> 10 µM		0.049 µM			
C#CC(=O)N1[C@@H](CCCC)Cc2cc(OC)ccc2[C@@H]1c1ccc(N2CCC(F)(F)C2)cc1 [Compound B-14]	> 1 µM		0.06 µM			

Compound	IC50 (A431 cells; [3])	IC50 [1, 4]	IC50 [2, 5]	IC50 (A431 cells; [6])	IC50 [1, 7]	IC50 [2, 8]
CCCC[C@H]1Cc2cc(OC)ccc2[C@H](c2ccc(NC34CC5CC(CC(C5)C3)C4)c(Cl)c2)N1C(=O)C#C[Si](C)(C)C [Compound A-46]				≥ 10 µM		0.31 µM
C#CC(=O)N1[C@@H](CCCC)Cc2ccc(OC)cc2[C@@H]1c1ccc(NC23CC4CC(CC(C4)C2)C3)cc1 [Compound B-42, 1-((1S,3S)-1-(4-(((3R,5R,7R)-adamantan-1-yl)amino)phenyl)-3-butyl-7-methoxy-3,4-dihydroisoquinolin-2(1H)-yl)prop-2-yn-1-one]	6.58 µM		0.0145 µM			
CCCC[C@H]1Cc2cc(OC)ccc2[C@H](c2ccc(NC34CC5CC(CC(C5)C3)C4)cc2)N1C(=O)C#C[Si](C)(C)CC [Compound A-33, 1-((1S,3S)-1-(4-(((1s,3R)-adamantan-1-yl)amino)phenyl)-3-butyl-6-methoxy-3,4-dihydroisoquinolin-2(1H)-yl)-3-(ethyldimethylsilyl)prop-2-yn-1-one]					> 1 µM	0.023 µM
CCC[C@H]1Cc2cc(OC)ccc2[C@H](c2ccc(NC34CC5CC(CC(C5)C3)C4)cc2)N1C(=O)C#C[Si](C)(C)C [Compound A-3]					> 1 µM	0.029 µM
C#CC(=O)N1[C@@H](c2ccc(C#N)cc2)c2ccc(OC)cc2C[C@@H]1C [Compound B-32, 4-[(1S,3S)-6-methoxy-3-methyl-2-(prop-2-ynoyl)-1,2,3,4-tetrahydroisoquinolin-1-yl]benzonitrile]	3.5 µM		0.42 µM			
C#CC(=O)N1[C@@H](COCC)Cc2cc(OC)ccc2[C@@H]1c1ccc(C#N)cc1 [Compound B-39]	> 10 µM		0.195 µM			
C#CC(=O)N1CCc2cc(OC)ccc2C1c1ccc(F)cc1 (stereo not shown) [Compound B-26]	> 10 µM		0.395 µM			
C#CC(=O)N1[C@@H](CCCC)Cc2cc(OC)ccc2[C@@H]1c1ccccc1 [Compound B-29]	8.73 µM		0.037 µM			
C#CC(=O)N1[C@@H](COC)Cc2cc(OC)ccc2[C@H]1c1ccc(NC23CC4CC(CC(C4)C2)C3)cc1 [Compound B-45]			0.047 µM			
C#CC(=O)N1[C@@H](CCCC)Cc2cc(OC)ccc2[C@H]1C12CC(F)(C1)C2 [Compound B-6]	> 1 µM		0.067 µM			
C#CC(=O)N1[C@@H](CCCC)Cc2cc(F)ccc2[C@@H]1c1ccc(NC23CC4CC(CC(C4)C2)C3)cc1 [Compound B-40]	4.52 µM		0.006 µM			
CCCC[C@H]1Cc2cc(OC)ccc2[C@H](c2ccc(NC3CCC3)cc2)N1C(=O)C#C[Si](C)(C)C [Compound A-25, 1-((1S,3S)-3-butyl-1-(4-(cyclobutylamino)phenyl)-6-methoxy-3,4-dihydroisoquinolin-2(1H)-yl)-3-(trimethylsilyl)prop-2-yn-1-one]					> 1 µM	0.171 µM
C#CC(=O)N1[C@@H](CCC)Cc2cc(OC)ccc2[C@@H]1c1ccc(NC23CC4CC(CC(C4)C2)C3)cc1 [Compound B-43]	4.1 µM		0.006 µM			
C#CC(=O)N1[C@H](c2ccc(NC34CC5CC(CC(C5)C3)C4)cc2)c2ccc(OC)cc2C[C@@H]1C1CCC1 [Compound B-51]	4.9 µM		0.072 µM			
C#CC(=O)N1[C@@H](CCCC)Cc2cc(OC)ccc2[C@@H]1C12CC(F)(C1)C2 [Compound B-5]	> 1 µM		0.145 µM			
C#CC(=O)N1CCc2cc(OC)ccc2C1c1ccccc1 (stereo not shown) [Compound B-24]	3.5 µM		0.198 µM			
C#CC(=O)N1CCc2cc(OC)ccc2C1c1ccc(C#N)cc1 (stereo not shown) [Compound B-28]	7.5 µM		0.18 µM			
C#CC(=O)N1[C@@H](CCCC)Cc2cc(OC)ccc2[C@H]1c1ccc(NC23CC4CC(CC(C4)C2)C3)cc1 [Compound B-2]	> 1 µM		0.192 µM			

Reference: patent US20240092739A1, “COMPOUNDS AND METHODS OF USE” (Ferro Therapeutics, Inc, priority 2020, published 2024)
